Reference: patent publication US7906486B2, “Method of treating or preventing tissue deterioration, injury or damage due to disease of mucosa” (SciClone Pharmaceuticals, Inc., priority 2007, dated 2011)
Several values for one entry are separate records, joined by “and”; a condition that tells them apart may be missing. Equal entries are not always repeated.

Experiments:
[1] = Weights and survival (Example 4, SCI-04); format: in vivo, Syrian Golden Hamsters; parameters: Animal weight: unit not given here; details: for Animal weight: Group 2 (SCV-07 10 μg/kg, day −1 to day 20), individual animals
Method: All animals were weighed daily and their survival recorded, in order to assess possible differences in animal weight among treatment groups as an indication for mucositis severity and/or possible toxicity resulting from the treatments.
There were no significant differences in weight changes between study groups. The mean daily percent weight change data was evaluated. The saline treated control hamsters gained an average of 46.5% of their starting weight during the study. Hamsters in the group receiving SCV-07 at 10 μg/kg on days −1 to 20 gained an average of 51.3% of their starting weight during the study. Hamsters in the group receiving SCV-07 at 100 μg/kg on days −1 to 20 gained an average of 46.7% of their starting weight during the study. Hamsters in the group receiving SCV-07 at 1 mg/kg from day −1 to day 20 gained an average of 48.8% of their starting weight during the study. The significance of these differences was evaluated by calculating the area-under-the-curve (AUC) for the weight gain of each animal, and then comparing the different treatment groups using a One-Way ANOVA test.

thymocyte and lymphocyte = details: in vitro; cited from earlier work
bone marrow cells = details: cited from earlier work

With N[C@H](CCC(=O)N[C@@H](Cc1c[nH]c2ccccc12)C(=O)O)C(=O)O [SCV-07, γ-D-glutamyl-L-tryptophan] the “average weight gain, % of starting weight during the study” value (shortened to “average weight gain, %”) ([1]; 10 ug/kg on days -1 to 20) was 51.3%, the “average weight gain, %” value ([1]; 100 ug/kg on days -1 to 20) was 46.7% and the “average weight gain, %” value ([1]; 1 mg/kg from day -1 to day 20) was 48.8%. The Animal weight ([1]; day 0) was 77 (2×) and 102 and 84 and 80 and 94, the Animal weight ([1]; day 1) was 74 and 101 and 83 and 80 and 76 and 91 and the Animal weight ([1]; day 2) was 78 and 104 and 89 and 86 and 77 and 94. The Animal weight ([1]; day 3) was 82 and 111 and 93 and 88 and 79 and 98, the Animal weight ([1]; day 4) was 83 and 113 and 95 and 90 and 82 and 101 and the Animal weight ([1]; day 5) was 86 and 112 and 98 and 93 and 83 and 103. For the same compound, the Animal weight ([1]; day 6) was 88 and 114 and 101 and 96 and 84 and 106, the Animal weight ([1]; day 7) was 90 and 117 and 103 and 98 and 86 and 108 and 80 and the Animal weight ([1]; day 8) was 92 and 121 and 106 and 101 and 88 and 109 and 83. The Animal weight ([1]; day 9) was 94 and 122 and 106 and 102 and 91 and 108 and 83, the Animal weight ([1]; day 10) was 96 and 125 and 112 and 105 and 90 and 109 and 85 and the Animal weight ([1]; day 11) was 98 and 125 and 111 and 105 and 92 and 109. The Animal weight ([1]; day 12) was 98 and 128 and 111 and 107 and 91 and 109, the Animal weight ([1]; day 13) was 98 and 128 and 112 and 108 (2×) and 90 and the Animal weight ([1]; day 14) was 99 and 130 and 115 and 109 and 91 and 111. The Animal weight ([1]; day −1) was 77 and 101 and 85 and 82 and 76 and 94, the “Con-A-induced thymocyte and lymphocyte proliferation” value (thymocyte and lymphocyte) was “increases” and the “expression of Thy-1.2 on bone marrow cells” value (bone marrow cells) was “stimulates”.
